This is an account of results in patent US20240208896A1, “PRODRUGS OF KV7 CHANNEL OPENERS” (Xyzagen, Inc., priority 2021, published 2024).

Data set [1] relates to CCI model of neuropathic pain. The data set can be described thus: CCI model of neuropathic pain (pin prick, von Frey). In kind it is in vivo, Sprague Dawley rat. The conditions noted are these: CCI rats, 1 h after pretreatment. On the procedure: Compound 3 was tested for reversal of mechanical hypersensitivity to the pin prick test for hindlimb paw withdraw and the von Frey hairs for gram force mechanical allodynia in the CCI model of neuropathic pain. Male Sprague Dawley rats (n=8/group) were tested for baseline sensitivity on Day 1 (ipsilateral and contralateral paws) and administered XYG-203 orally; 40 mg/kg on Day 1, 20 mg/kg Day 3, 10 mg/kg Day 5, 5 mg/kg Day 7, 1 mg/kg Day 10 and baseline on Day 12. Mechanical hypersensitivity was tested 1 h after pretreatment. Data (mean±SD) were analyzed with a repeated measures ANOVA with Dunnet's adjustment for multiple comparisons.

The nature of data set [2]: Rat PK at equimolar dose to Ezogabine (20 mg/kg) in 0.5% methylcellulose. The note with it: for AUClast/D / Cmax/D: male cannulated rats, equimolar to Ezogabine 20 mg/kg, 0.5% methylcellulose, analyte the dosed prodrug. Here is the method:
(§1) Blood samples were collected at the same time points over 24 hours to generate a concentration time profile. Two male rats were dosed per group. Plasma samples were analyzed by LC/MS/MS and the resulting concentration time profiles and PK parameters are provided.
as §1, §1

The nature of data set [3]: Pharmacokinetics of ezogabine prodrugs in rat (IV, IM, PO). The conditions noted are these: rat, in vivo, po. On the procedure:
Blood was diluted by 10% with these stabilizers.
Extraction of the molecules was conducted by taking a 50 uL aliquot of plasma and adding 200 uL of acetonitrile containing 200 ng/mL tolbutamide as the internal standard. Samples were precipitated in a 96 well plate, centrifuges and an aliquot transferred to a new plate, dried down under heat and nitrogen and then reconstituted in the initial mobile phase conditions of the LC-MS/MS method. […] A standard curve was prepared from 5000 ng/mL to 1 ng/mL for each analyte. Concentration data from the bioanalytical run was analyzed by Phoenix Winnonlin version 8 for noncompartmental PK analysis, plotting of concentration time curves and tabulation of PK parameters.
150 uL of blood were collected at predesignated time points. At completion of the study animals were asphyxiated by carbon dioxide gas and exsanguinated for euthanasia.

The conditions of data set [4]: 1000 ng/mL. On the procedure:
Plasma was collected by the biomaterial vendor and kept frozen at −20° C.
The samples were analyzed by HPLC separation and mass spectrometry detection for prodrug amount, relative to a baseline time 0 control sample. Triplicate samples were generated at each time point and the peak area response was averaged and converted to a percent of baseline control.

The nature of data set [5]: Benchtop solvent stability exposed to light, HPLC-UV 230 nm, up to 7 days. In kind it is physicochemical. The conditions noted are these: for Stability in solvent: benchtop, exposed to light. On the procedure:
Compounds in solvent were left on the benchtop exposed to light for up to 7 days since it is known that Compound 1 will degrade with light within 3-7 days.
Stability was assessed by taking an aliquot from the solubility vials at each test day. A single replicate was injected for each test condition.
Samples were injected onto an HPLC system with an aqueous mobile phase and acetonitrile organic phase and compounds were separated on a C8 50×2 mm column. Wavelength 230 nm was monitored for absorption and integrated for peak area while the mass spectrometer was used to confirm mass. Samples were tested on Day 1 and on subsequent days through Day 7.

The nature of data set [6]: Solvent solubility assessment by visual inspection. The format is physicochemical. On the procedure: Compounds were weighed and placed into a 4 dram vials and solvents were added to the target concentration. Compounds were vortex and visually inspected for particulates and considered soluble if clear upon visual inspection with and without magnification. Solubility was reported as either greater than (>) or less than (<) from the prepared concentration. […] It was evaluated at 10 mg/mL in 0.1 N NaCl and was freely soluble. It was evaluate at 1 mg/mL in 0.1 N NaOH and 0.1 N Na2HPO4 and was freely soluble. In ethanol and methanol it was freely soluble at a concentration of 75 mg/mL. […] It was freely soluble at 75 mg/mL in methanol and ethanol. It was soluble at 1 mg/mL in 1N HCl.

Data set [7] is described as follows: Acid and organic solution stability, HPLC-UV 250 nm. The note with it: 5 mg/mL; for Degradation / conversion to ezogabine in solution: acidic solutions and organic solvents, up to 3 weeks. Here is the method:
An HPLC-UV Vis method was developed using 0.1% Formic acid in water as mobile phase A and 0.1% Formic acid in acetonitrile as mobile Phase B. A gradient method was developed ramping from 10% A to 90% B over 8 minutes and then returning to 10% A at 8.5 minutes on a 4.6×50 mm Zorbax C-18 column. Injections of 10 uL of stability solutions were injected for analyte detection.
[…] Aliquots were collected at serial time points and then diluted to a nominal concentration of 100 ug/mL for injection to the HPLC and 250 nm monitored by the diode array detector. Data at approximately 10 days is presented.
Aliquots were collected at serial time points and then diluted to a nominal concentration of 100 ug/mL for injection to the HPLC and 250 nm monitored by the diode array detector.
(§2) It was also evaluated at 2 N HCl at 37° C. Aliquots were collected at serial time points and then diluted to a nominal concentration of 100 ug/mL for injection to the HPLC and 250 nm monitored by the diode array detector.
as §2, §2, §2

For another data set, the target named is Human Kv7.2/7.3 (Homo sapiens, UniProt O43525+O43526). Kind of data set: In vitro screen of Kv7.2/7.3 voltage gated potassium channels (FluxOR, FLIPR). The note with it: Human Kv7.2/7.3 cells; FluxOR fluorescence; 0.03 to 30 μM. In kind it is cell-based. Here is the method:
Human Kv7.2/7.3 cells are harvested, counted and seeded in black, clear-bottomed 96 well plates at a density of 50,000 cells per well in 100 μl volume and incubated overnight. The following day, media was removed and 40 μl of loading buffer (4.895 mL HBSS:HEPES, 50 μL probenecid, 50 μL power load, 5 μl FluxOR reagent) was added and incubated at room temperature for 30 minutes. After incubation loading buffer was removed and 40 μl of assay buffer added (4.45 ml HBSS:HEPES, 500 μl FluxOR assay buffer and 50 μL probenecid) and incubated for 10 minutes.

Read-outs that look alike come from different tables or passages of the source. Where only a bound is given, the exact number is not on record here.

Human Kv7.2/7.3, sequence (O43526 whole entry): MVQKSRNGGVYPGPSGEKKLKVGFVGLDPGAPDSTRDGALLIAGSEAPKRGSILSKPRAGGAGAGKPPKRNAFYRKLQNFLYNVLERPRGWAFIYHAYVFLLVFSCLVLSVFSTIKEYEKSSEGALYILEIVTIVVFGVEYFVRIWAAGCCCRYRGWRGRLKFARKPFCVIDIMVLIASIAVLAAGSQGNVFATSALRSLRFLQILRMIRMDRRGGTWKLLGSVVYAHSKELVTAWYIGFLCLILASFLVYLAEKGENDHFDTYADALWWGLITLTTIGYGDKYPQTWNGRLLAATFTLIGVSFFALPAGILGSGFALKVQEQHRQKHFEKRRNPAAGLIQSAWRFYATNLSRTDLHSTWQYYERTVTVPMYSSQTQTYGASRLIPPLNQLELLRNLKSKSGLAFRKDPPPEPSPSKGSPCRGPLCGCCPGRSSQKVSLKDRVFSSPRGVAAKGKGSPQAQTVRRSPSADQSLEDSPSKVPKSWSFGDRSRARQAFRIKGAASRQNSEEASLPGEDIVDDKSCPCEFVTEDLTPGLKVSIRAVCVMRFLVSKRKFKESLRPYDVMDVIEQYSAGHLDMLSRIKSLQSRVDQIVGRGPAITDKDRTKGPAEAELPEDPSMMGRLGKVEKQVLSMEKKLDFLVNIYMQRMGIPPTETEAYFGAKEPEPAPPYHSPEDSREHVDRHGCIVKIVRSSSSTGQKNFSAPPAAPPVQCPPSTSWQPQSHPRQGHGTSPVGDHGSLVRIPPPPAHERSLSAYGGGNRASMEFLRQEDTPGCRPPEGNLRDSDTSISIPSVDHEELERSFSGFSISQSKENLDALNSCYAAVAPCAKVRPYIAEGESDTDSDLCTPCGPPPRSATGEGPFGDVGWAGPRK
Human Kv7.2/7.3, sequence (O43525 whole entry): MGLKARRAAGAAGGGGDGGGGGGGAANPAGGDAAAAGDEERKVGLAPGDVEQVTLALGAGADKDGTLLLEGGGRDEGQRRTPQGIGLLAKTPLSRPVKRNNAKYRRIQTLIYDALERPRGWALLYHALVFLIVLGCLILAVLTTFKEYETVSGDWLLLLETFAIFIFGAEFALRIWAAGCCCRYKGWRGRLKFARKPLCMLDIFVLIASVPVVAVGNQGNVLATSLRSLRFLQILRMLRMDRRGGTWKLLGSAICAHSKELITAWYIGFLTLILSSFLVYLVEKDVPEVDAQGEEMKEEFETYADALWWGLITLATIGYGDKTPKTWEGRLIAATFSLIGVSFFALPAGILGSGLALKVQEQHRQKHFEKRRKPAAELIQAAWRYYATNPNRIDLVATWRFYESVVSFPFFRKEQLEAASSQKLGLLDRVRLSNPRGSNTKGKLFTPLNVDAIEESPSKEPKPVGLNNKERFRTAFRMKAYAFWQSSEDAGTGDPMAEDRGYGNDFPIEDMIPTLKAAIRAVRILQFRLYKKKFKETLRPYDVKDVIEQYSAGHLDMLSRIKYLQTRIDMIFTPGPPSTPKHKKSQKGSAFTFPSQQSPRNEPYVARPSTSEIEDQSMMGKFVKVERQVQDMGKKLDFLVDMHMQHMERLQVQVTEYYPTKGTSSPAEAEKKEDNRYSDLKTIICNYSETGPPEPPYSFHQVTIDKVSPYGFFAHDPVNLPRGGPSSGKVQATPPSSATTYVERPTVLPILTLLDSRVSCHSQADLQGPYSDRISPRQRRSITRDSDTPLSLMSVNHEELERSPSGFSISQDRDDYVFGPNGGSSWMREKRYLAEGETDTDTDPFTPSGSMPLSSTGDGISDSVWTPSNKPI

`CCOC(=O)Nc1ccc(NCc2ccc(F)cc2)cc1NC(=O)OC(C)OC(=O)C(C)C` (stereo not shown) [Compound 3]: the “Reversal of mechanical hypersensitivity vs baseline” value in data set [1] (oral 5 mg/kg) is “the 95% confidence intervals did not cross the baseline mean”. Further, the “Gram force to paw lift (von Frey)” value in data set [1] (oral 40 mg/kg) is on record as “increased the gram force to paw lift significantly”. Moreover, the “Reduction of latency of neuropathic ipsilateral paw withdrawal (pin prick)” value in data set [1] (oral 40 mg/kg, p=0.0003) was 9.2 s. The AUClast/D in data set [2] was 0.0136 ng·h/mL/mg/kg. Moreover, in data set [2], the Cmax/D is 0.0273 ng/mL/mg/kg. Besides, the “Total exposure of ezogabine relative to ezogabine on a given molar dose” value in data set [2] (male, rat, in vivo) is recorded as over 2 fold. Further, the “Exposure of the prodrug itself in systemic circulation” value in data set [3] is reported as “very little exposure”. Moreover, the “Time by which prodrug is degraded in plasma” value in data set [4] (mouse) and in data set [4] (rat) was at most 1 h each time. In addition, the Stability in solvent result in data set [5] (0.1 N HCl) was “appears to be stable over 4 days”; in data set [5] (1 N HCl), “not stable in 1 N HCl over 7 days”; in data set [5] (ethanol and methanol), “soluble and stable through 3 days in ethanol and methanol, while on Day 4 it exhibits degradation”. Besides, the “Change of solubility over time” value in data set [5] (0.1N Na2HPO4, H2O, 0.1N NaCl, Day 1 to Day 3) is on record as “increases in solubility over time”. The Solubility in data set [6] (0.1N HCl) was under 1000 µg/mL; in data set [6] (0.1 N Na2HPO4, aqueous buffer, thermodynamic from solid, read-out: Solubility (freely soluble at tested concentration)), under 1000 µg/mL; in data set [6] (0.1N NaCl) it was under 1000 µg/mL; in data set [6] (0.1 N NaCl, saline or isotonic, thermodynamic from solid, read-out: Solubility (freely soluble at tested concentration)), under 1000 µg/mL; in data set [6] (0.1N NaOH), under 1000 µg/mL; in data set [6] (0.1 N NaOH, aqueous buffer, thermodynamic from solid, read-out: Solubility (freely soluble at tested concentration)) it was under 1000 µg/mL. In addition, the Solubility in data set [6] (0.1 Na2HPO4) is under 1000 µg/mL; in data set [6] (1N HCl), over 1000 µg/mL; in data set [6] (Ethanol), over 75000 µg/mL; in data set [6] (Methanol), over 75000 µg/mL; in data set [6] (Water), under 1000 µg/mL; in data set [6] (aqueous buffer, thermodynamic from solid, 1N HCl, read-out: Solubility (soluble at tested concentration)) it was over 1000 µg/mL. Further, the Solubility in data set [6] (ethanol, organic solvent or mixture, thermodynamic from solid, read-out: Solubility (freely soluble at tested concentration)) is over 75000 µg/mL; in data set [6] (methanol, organic solvent or mixture, thermodynamic from solid, read-out: Solubility (freely soluble at tested concentration)), over 75000 µg/mL; in data set [6] (simulated gastric fluid, thermodynamic from solid, 0.1N HCl, read-out: Solubility (freely soluble at tested concentration)), under 1000 µg/mL; in data set [6] (water, thermodynamic from solid, read-out: Solubility (freely soluble at tested concentration)), under 1000 µg/mL. Moreover, the “Colour of stability solution” value in data set [7] was “clear and colorless through Day 18”; in data set [7] (9 days) it was “turned a golden yellow by Day 9”. Besides, the “Ezogabine Area (formed from the prodrug)” value in data set [7] (0.1N HCl, room temp., normal light, 433 h) is 400 mAU; in data set [7] (1N HCl, room temp., normal light, 97 h) it was 2881 mAU; in data set [7] (Acetonitrile, room temp., normal light, 435 h) it was 51 mAU; in data set [7] (Ethanol, room temp., normal light, 390 h) it was 43 mAU; in data set [7] (Methanol, room temp., normal light, 435 h) it was 41 mAU. Moreover, the “Degradation / conversion to ezogabine in solution” value (from here on “Degradation / conversion”) in data set [7] was “converts to ezogabine under acidic conditions but does not in organic solvent”. For the same molecule, the “% Remaining” value in data set [7] (390 h) is listed as 97.6%; in data set [7] (buffer, 97 h), 1.78%; in data set [7] (buffer, 433 h), 11.8%. For the same molecule, the “Activity against the primary target of Kv7.2/7.3” value on Human Kv7.2/7.3 was “inactive”.
As to `CCOC(=O)Nc1ccc(NCc2ccc(F)cc2)cc1NC(=O)[C@H](N)CO` [Compound 6], the AUClast/D in data set [2] worked out at 199 ng·h/mL/mg/kg. For the same molecule, the Cmax/D in data set [2] amounted to 233 ng/mL/mg/kg. Also, in data set [7], the “Colour of stability solution” value was “remained clear and colorless through Day 18”. Further, the “Ezogabine Area (formed from the prodrug)” value is reported as 58 mAU in data set [7] (1N HCl, room temp., normal light, 437 h); 461 mAU in data set [7] (2N HCl 37C, 437 h); 177 mAU in data set [7] (2N HCl, room temp., normal light, 437 h); 184 mAU in data set [7] (Methanol, room temp., normal light, 437 h). Also, the “Degradation / conversion” value in data set [7] was “very little degradation to ezogabine”. Further, in data set [7] (437 h), the “% Remaining” value was 67.7%.
Regarding `CCNC(=O)CC[C@H](N)C(=O)Nc1cc(NCc2ccc(F)cc2)ccc1NC(=O)OCC.Cl` [Compound 29], the AUClast/D in data set [2] was 305 ng·h/mL/mg/kg. The Cmax/D in data set [2] worked out at 44.2 ng/mL/mg/kg. The “Ezogabine Area (formed from the prodrug)” value is recorded as 0 mAU in data set [7] (0.1N HCl, room temp., normal light, 441 h); 1241 mAU in data set [7] (1N HCl, room temp., normal light, 441 h); 1755 mAU in data set [7] (2N HCl 37C, 441 h); 1659 mAU in data set [7] (2N HCl, room temp., normal light, 441 h); 0 mAU in data set [7] (Methanol, room temp., normal light, 441 h). Further, in data set [7], the “Degradation / conversion” value is “exhibits degradation under acidic conditions and also conversion to ezogabine”.
